{"source": "patent US20240350402A1", "about": "“TOPICAL DRUG TREATMENT TO PREVENT OR REDUCE CORNEAL SCARRING” (The Cleveland Clinic Foundation, priority 2021, published 2024)", "key": {"[1]": {"test_system": "corneal neovascularization (CNV)", "assay": "Alkali burn model: central corneal neovascularization (corneal angiography)", "assay_type": "in vivo, rabbit", "conditions": "four corneas in each group, topical six times per day, one month", "method": "Alkali injuries were produced in one eye of rabbits with previously published methods^10 using 1N sodium hydroxide (Sigma, St. Louis, MO) in balanced salt solution (BSS, 0.64% sodium chloride, 0.075% potassium chloride, 0.048% calcium chloride dihydrate, […] magnesium chloride hexahydrate, 0.39% sodium acetate trihydrate, 0.17% sodium citrate dihydrate, pH 7.5, Alcon, H. Worth, TX) and a 5 mm diameter circular Whatman No. 1 filter paper (Cat #1001-6508, Fisher Scientific) wetted with 100 μl of 1N NaOH solution. Following the alkali burn injury, the cornea was irrigated profusely with BSS. Each injured cornea also received one drop of ciprofloxacin (Alcon, Ft. Worth, TX, USA) ten minutes after surgery and four times a day for one week and at least 15 minutes apart from the study medications.\nWorth TX), at least 5 minutes apart, or 4) 50 μl of BSS.\nAll corneas had fluorescent angiography at the peak of dye passage in the cornea immediately after injection of 1.5 ml of 10% sodium fluorescein (McKesson, Irvine, TX) in the central ear vein with the slit lamp system and digital camera system using a “barrier filter” that only transmitted 520-530 nm, the peak of fluorescein emission, with broad illumination of the cornea, as previously described.^11"}, "[2]": {"test_system": "myofibroblast marker α-SMA", "assay": "-9D PRK model: IHC stromal α-SMA pixels (ImageJ)", "assay_type": "in vivo, rabbit", "conditions": "topical 0.8 mg/ml losartan six times a day, one month", "method": "Animal procedures were approved by the Institutional Animal Care and Use Committee at the Cleveland Clinic Foundation and animals were treated in accordance with the tenets of the Association for Research in Vision and Ophthalmology Statement for the Use of Animals in Ophthalmic and Vision Research. Twelve female 12- to 15-week-old New Zealand white rabbits weighing 2.5 to 3 kg each were included. Starting 24 hours prior to surgery and continuing 5 days after PRK, all rabbits received 60 mL children's liquid acetaminophen (Johnson & Johnson, Ft. Washington, PA, USA) per 1 L of drinking water. One eye of each rabbit was randomly selected to have −9.0 D (on myopia scale) PRK and received 2 drops of topical 1% proparacaine hydrochloride (Alcon, Fort Worth, TX, USA) prior to the surgery. […]\nAll images were converted to 300 DPI 900 pixel width×672 pixel height images with Photoshop 22.1.1 (Adobe, San Jose, CA). The mean pixels of stromal α-SMA or stromal collagen type IV were determined in a 900-pixel wide×235-pixel high rectangle (for either α-SMA or collagen type IV quantitation) with ImageJ in three sections for each cornea using the image panels showing only the color of interest. […]"}}}
{"molecule": "CCCCc1nc(Cl)c(CO)n1Cc1ccc(-c2ccccc2-c2nn[nH]n2)cc1", "note": "[losartan]", "values": [{"measurement": "corneas in which central corneal neovascularization developed", "setting": "[1]", "result": "two"}, {"measurement": "total pixels of α-SMA staining within the analyzed rectangle (mean±SEM)", "setting": "[2]", "result": "120±60", "unit": "pixels"}]}
